# Assay results taken from patent US20130078203A1, “CAROTENOID SUNSCREEN” (Promar AS, priority 2010, published 2013).
# Where “and” joins values, the source holds several entries; their conditions need not be identical. Equal entries are not always repeated. Where two headings read alike, the source gives them in different places.
# Legend:
# [1] = UV/VIS absorption maxima by HPLC with diode array detector; format: physicochemical; conditions: carotenoids dissolved in MeOH, HPLC on Zorbax C18 column
# Description: LC-MS analyses were performed on an Agilent Ion Trap SL mass spectrometer equipped with an Agilent 1100 series HPLC system. The HPLC system was equipped with a diode array detector (DAD) which recorded UV/VIS spectra in the range from 200-650 nm. Two HPLC protocols were used for the analysis in this work. A high throughput protocol for a fast quantitative determination of known carotenoids was used as follows; the carotenoids were eluted isocratically in MeOH for 5 min. A Zorbax rapid resolution SB RP C18 column with dimension 2.1*30 mm was used for the analyses. Column flow was kept at 0.4 mL/min and 10 μL extract was injected for each run. For detailed qualitative carotenoid separation a Zorbax SB RP C18 with dimension 2.1*150 mm was used. The carotenoids were eluted isocratically in MeOH/Acetonitrile (7:3) for 25 minutes. The column flow was 250 μl/min and 10 or 20 μL sample was injected depending on the concentration.
# [2] = In vitro skin model irradiation absorption (integrating sphere transmission spectra, Vitro-skin); format: physicochemical; conditions: for absorption in the 375-490 nm range: Vitro-skin skin model; for absorption in the 375-490 nm range / effect of prolonged contact with the skin model on absorption: FIGS. 7A-C; for effect of prolonged contact with the skin model on absorption: 10, 15 or 20 minutes on Vitro-skin
# Description: The in vitro method of Springsteen was used (Springsteen et al., 1999, Analytica Chimica Acta, 380, p 155-164). Vitro-skin was used as the skin simulator and Miglyol (Miglyol 812F Neutraloel CHG.040906) or ethyl lactate (Sigma Aldrich) was used as the solvent. The tests were performed with a Varian Cary 300 Conc UV-Visible Spectrophotometer (with an integrating sphere). Sarcinaxanthin (prepared as described in Example 2) and the other carotenoids (Sigma Aldrich) were tested at various concentrations and immediately on application to the skin model or 10-20 minutes post-application.
# FIGS. 7A-C show the irradiation absorption achieved by β-carotene (A), sarcinaxanthin (B) and zeaxanthin (C) at the concentrations indicated. The presented graphs also show the effects of the diluent on sarcinaxanthin absorption (FIG. 7B) and the effect of prolonged contact with the skin at 10, 15 or 20 minutes as indicated on the Figures. The results were compared to a conventional SPF 60 sun lotion and the use of diluent alone.
# [3] = side-by-side comparison, ethyl lactate as diluent, immediately vs after 15 minutes, FIGS. 8A and B
Compound,λmax (nm) in the HPLC eluent [1],effect of prolonged contact with the skin model on absorption [2],absorption in the 375-490 nm range [2],"stability of absorption after 15 minutes on the skin model [2, 3]",stability of absorption after 15 minutes on the skin model [2]
C=C1CCC(C/C=C(\C)CO[C@@H]2O[C@H](CO)[C@@H](O)[C@H](O)[C@H]2O)C(C)(C)C1/C=C/C(C)=C/C=C/C(C)=C/C=C/C=C(C)/C=C/C=C(C)/C=C/C1C(=C)CCC(C/C=C(\C)CO[C@@H]2O[C@H](CO)[C@@H](O)[C@H](O)[C@H]2O)C1(C)C (stereo partly shown) [Sarcinaxanthin diglucoside],414 nm and 438 nm and 467 nm,–,–,–,–
C=C1CC[C@H](C/C=C(\C)CO)C(C)(C)[C@@H]1/C=C/C(C)=C/C=C/C(C)=C/C=C/C=C(C)/C=C/C=C(C)/C=C/[C@@H]1C(=C)CC[C@H](C/C=C(\C)CO[C@@H]2O[C@H](CO)[C@@H](O)[C@H](O)[C@H]2O)C1(C)C [Sarcinaxanthin monoglucoside],414 nm and 438 nm and 467 nm,–,–,–,–
CC1=C(/C=C/C(C)=C/C=C/C(C)=C/C=C/C=C(C)/C=C/C=C(C)/C=C/C2=C(C)C[C@@H](O)CC2(C)C)C(C)(C)C[C@H](O)C1 [zeaxanthin],–,loss of absorption,only modest absorption,–,unstable and lose most of their absorption properties in the relevant range
Lycopene,445 nm and 470 nm and 501 nm,–,–,–,–

# Now from value to compound, other results behind:
λmax (nm) in the HPLC eluent [1],effect of prolonged contact with the skin model on absorption [2],Compound,absorption in the 375-490 nm range [2],"stability of absorption after 15 minutes on the skin model [2, 3]",stability of absorption after 15 minutes on the skin model [2]
414 nm and 438 nm and 467 nm,–,CC1=CCC(C/C=C(\C)CO)C(C)(C)C1/C=C/C(C)=C/C=C/C(C)=C/C=C/C=C(C)/C=C/C=C(C)/C=C/C1C(C)=CCC(C/C=C(\C)CO)C1(C)C (stereo not shown) [Decaprenoxanthin],–,–,–
414 nm and 438 nm and 467 nm,–,C=C1CC[C@H](C/C=C(\C)CO)C(C)(C)[C@@H]1/C=C/C(C)=C/C=C/C(C)=C/C=C/C=C(C)/C=C/C=C(C)/C=C/[C@@H]1C(=C)CC[C@H](C/C=C(\C)CO)C1(C)C [sarcinaxanthin],strong absorption,absorption appears unaffected by the prolonged contact,–
–,loss of absorption,CC1=C(/C=C/C(C)=C/C=C/C(C)=C/C=C/C=C(C)/C=C/C=C(C)/C=C/C2=C(C)CCCC2(C)C)C(C)(C)CCC1 [β-carotene],only modest absorption,unstable and lose most of their absorption properties in the relevant range,–
